Where “and” joins values, the source holds several entries; their conditions need not be identical. Identical values can stand only once.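 Growth conditions: 96-well plates. Treatment: test compound, 48 hours, 5 concentrations. Analysis: linear interpolation between bracketing concentrations; unreached endpoints set to highest concentration. GI50 = concentration required for 50% inhibition of growth. TGI: total growth inhibition.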
Columns and labels:
Experiment in all cases: NCI anticancer screen, dose series, 48 h
COLO 205 colon = system: COLO 205 colon
SF-539 CNS = system: SF-539 CNS
CAKI-1 renal = system: CAKI-1 renal
OVCAR-3 ovarian = system: OVCAR-3 ovarian
UACC-257 melanoma = system: UACC-257 melanoma
LOX IMVI melanoma = system: LOX IMVI melanoma
NCI-H226 lung = system: NCI-H226 lung
UACC-62 melanoma = system: UACC-62 melanoma
HT29 colon = system: HT29 colon
UO-31 renal = system: UO-31 renal

Structure (SMILES)	TGI (COLO 205 colon)	TGI (SF-539 CNS)	TGI (CAKI-1 renal)	TGI (OVCAR-3 ovarian)	TGI (UACC-257 melanoma)	TGI (LOX IMVI melanoma)	TGI (NCI-H226 lung)	TGI (UACC-62 melanoma)	TGI (HT29 colon)	TGI (UO-31 renal)	GI50 (COLO 205 colon)	GI50 (SF-539 CNS)	GI50 (CAKI-1 renal)	GI50 (OVCAR-3 ovarian)	GI50 (UACC-257 melanoma)	GI50 (LOX IMVI melanoma)	GI50 (NCI-H226 lung)	GI50 (UACC-62 melanoma)	GI50 (HT29 colon)	GI50 (UO-31 renal)
Cc1cc(Cl)ccc1NC(=O)C(=O)Cc1nc2ccc(C(=O)c3ccccc3)cc2[nH]c1=O	> 100 µM	> 100 µM	> 100 µM	> 100 µM	> 100 µM	> 100 µM	> 100 µM	> 100 µM	> 100 µM	> 100 µM	–	–	–	–	–	–	–	–	–	–
CC12CC3(C)CC(C)(C1)CC(N=[N+]=[N-])(C2)C3	> 100 µM	> 100 µM	> 100 µM	> 100 µM	> 100 µM	> 100 µM	> 100 µM	> 100 µM	> 100 µM	> 100 µM	–	–	–	–	–	–	–	–	–	–
COc1cc2nncc(Sc3cnnc4ccccc34)c2cc1OC	> 100 µM	51.7 µM	> 100 µM	33.3 µM	68 µM	63.8 µM	67.3 µM	> 100 µM	59.1 µM	47.9 µM	–	–	–	–	–	–	–	–	–	–
COc1cc(/C=C2\CN(C)CC3=C2Nc2nc(SC)[nH]c(=O)c2C3c2cc(OC)c(OC)c(OC)c2)cc(OC)c1OC (stereo unspecified)	4.73 µM	15.6 µM	4.71 µM	6.72 µM	7.63 µM	3.94 µM	22.2 µM	5.11 µM	5.22 µM	3.44 µM	2.11 µM	3.64 µM	2.15 µM	2.64 µM	2.24 µM	1.66 µM	6.17 µM	2.06 µM	2.35 µM	1.57 µM
CSc1nc2c(c(O)c(C)c(=O)n2C2OC(COC(C)=O)C(OC(C)=O)C(OC(C)=O)C2OC(C)=O)c(=O)n1C (stereo unspecified)	> 100 µM	> 100 µM	> 100 µM	> 100 µM	> 100 µM	> 100 µM	> 100 µM	> 100 µM	> 100 µM	> 100 µM	–	–	–	–	–	–	–	–	–	–
Cc1cccc(NC(=O)c2sc3nc4c(cc3c2N)CCCC4)c1C	27.6 µM	1.2 µM	> 100 µM	0.871 µM	> 100 µM	> 100 µM	> 25.1 µM	> 100 µM	> 100 µM	> 100 µM	0.344 µM	0.272 µM	0.491 µM	0.285 µM	> 100 µM	0.598 µM	1.44 µM	0.533 µM	0.341 µM	–
COC(=O)c1ccc2c(c1)C(NC(C)=O)CCc1cc(OC)c(OC)c(OC)c1-2 (stereo unspecified)	0.0194 µM	0.056 µM	77.4 µM	1.23 µM	> 100 µM	> 96.5 µM	1.17 µM	> 100 µM	1.28 µM	> 81 µM	–	–	–	–	–	–	–	–	–	–
COc1cc(C2c3cc4c(cc3[C@@H](Nc3ccc(N(C)C)cc3)[C@H]3COC(=O)C23)OCO4)cc(OC)c1O (stereo partly specified)	8.04 µM and 18.9 µM	1.62 µM and 2.41 µM	1.03 µM and 3.42 µM	16.9 µM	11.2 µM and 28.8 µM	17.6 µM	–	1.53 µM and 2.28 µM	4.64 µM and 11.3 µM	3.27 µM and 6.69 µM	3.51 µM	0.572 µM	0.311 µM	–	10.2 µM	–	0.3 µM	0.347 µM	2.46 µM	1.47 µM
CC[O-].CC[O-].O=C1C(=C([O-])c2ccccc2)C(=O)c2ccccc21.O=C1C(=C([O-])c2ccccc2)C(=O)c2ccccc21.[Ti+4]	> 100 µM	> 100 µM	> 100 µM	> 100 µM	> 100 µM	> 100 µM	> 100 µM	> 100 µM	> 100 µM	> 100 µM	29.2 µM	> 100 µM	29.6 µM	> 100 µM	> 100 µM	> 100 µM	> 100 µM	> 100 µM	> 100 µM	> 100 µM
S=C(N/N=C/c1cc(Cl)cc(Cl)c1)NC12CC3CC(CC(C3)C1)C2	> 100 µM	> 100 µM	92.8 µM	> 100 µM	> 100 µM	> 100 µM	> 100 µM	> 100 µM	> 100 µM	> 100 µM	7.13 µM	8.85 µM	3.6 µM	6.03 µM	> 22.7 µM	6.09 µM	> 29.9 µM	10.2 µM	> 58.3 µM	4.86 µM
C/C(=N\O)c1ccc(Nc2cc(-n3nnc4ccccc43)nc3ccccc23)cc1	> 39.2 µM	44.7 µM	13.7 µM	43.1 µM	> 53.7 µM	13.5 µM	30.3 µM	19 µM	> 100 µM	26.6 µM	9.47 µM	19 µM	4.26 µM	16.3 µM	17.5 µM	3.44 µM	7.88 µM	6.9 µM	5.89 µM	6.79 µM
O=C1[C@@H](c2ccc(Cl)cc2)[C@H]2CC=C[C@H]2N1O	> 100 µM	> 100 µM	> 100 µM	> 100 µM	> 100 µM	> 100 µM	> 100 µM	> 100 µM	> 100 µM	> 100 µM	–	–	–	–	–	–	–	–	–	–
CS(=O)(=O)c1ccc(Cl)c([N+](=O)[O-])c1	33.2 µM	34.4 µM	4.3 µM	32.5 µM	31.6 µM	23.4 µM	30.3 µM	28.6 µM	17 µM	4.04 µM	16.4 µM	19.2 µM	2.05 µM	17.8 µM	15.8 µM	10.1 µM	15 µM	15.1 µM	4.63 µM	1.97 µM
CCOC(=O)c1c(NC(=O)c2ccc(C(C)C)cc2)sc2c(CN(C)C)c(O)ccc12	4.5 µM	3.23 µM	3.44 µM	11.9 µM	4.61 µM	3.23 µM	6.48 µM	3.48 µM	14.1 µM	2.82 µM	2.06 µM	1.74 µM	1.73 µM	3.52 µM	2.12 µM	1.76 µM	2.19 µM	1.82 µM	3.26 µM	1.46 µM

From PubChem BioAssay (NCI)
